Data set [1] addresses T1, A2 adenosine receptors (Rattus norvegicus, UniProt P30543). More on the design: A2 -adenosine receptors in rat striatal membranes; from tissue; host or cells: rat striatum membranes. The note with it: values taken from Jacobson et al. (ref 10); cited from earlier work.
The test system of data set [2] is A1 -adenosine receptors. As to conditions: ref 10a; cited from earlier work.
The target in another data set is T2, A1 adenosine receptors (Rattus norvegicus, UniProt P25099).
T2 construct: A1 adenosine receptors in rat cerebral cortical membranes; from tissue; host or cells: rat cerebral cortex membranes
T2 sequence (P25099 1-326): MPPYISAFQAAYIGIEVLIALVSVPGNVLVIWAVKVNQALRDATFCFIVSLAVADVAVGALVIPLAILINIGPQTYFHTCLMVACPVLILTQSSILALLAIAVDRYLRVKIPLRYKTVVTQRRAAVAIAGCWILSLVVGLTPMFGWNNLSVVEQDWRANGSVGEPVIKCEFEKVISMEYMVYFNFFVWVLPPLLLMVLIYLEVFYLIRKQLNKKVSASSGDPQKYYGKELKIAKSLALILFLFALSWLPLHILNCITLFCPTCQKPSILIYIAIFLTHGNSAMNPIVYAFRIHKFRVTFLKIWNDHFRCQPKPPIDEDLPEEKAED
The data set can be described thus: Inhibition of binding of [3H]N6-phenylisopropyladenosine to A1 adenosine receptors in rat cerebral cortical membranes. The note with it: for Ki (A2)/Ki (A1): ratio of A2 (rat striatum) to A1 (rat cortex) Ki.

In data set [3] the target is Nethylcarboxamidoadenosine-stimulated adenylat cyclase. The note with it: PC12 cell membranes; printed in brackets in the A2 Ki column; ref 10b; read-out: Kb for inhibition of N-ethylcarboxamidoadenosine-stimulated adenylate cyclase; cited from earlier work.
Another data set deals with tracheal relaxation. The note with it: background, ref 9a, cited from earlier work; for cardiac or behavioral stimulation: accompanying tracheal relaxation.
The next data set concerns cardiac depression. As to conditions: background, ref 9b; cited from earlier work.
Data set [4] deals with T1, A2 adenosine receptors. In words: Inhibition of binding of [3H]N-ethylcarboxamidoadenosine to A2-adenosine receptors in rat striatal membranes.
Experimental: Affinity at A1 - and A2 -adenosine receptors was measured in competitive binding assays, using as radioligands [^3 H]N^6 -phenylisopropyladenosine^17 (with rat cerebral cortical membranes) and [^3 H]5'-N-ethylcarboxamidoadenosine (with rat striatal membranes),^18 respectively.
N^6 -Cyclopentyladenosine was present at 50 nM to inhibit binding of the ligand at A1 -adenosine receptors. Inhibition of binding by a range of concentrations of xanthines was assessed in triplicate in at least three separate experiments. IC50 -values were converted to Ki-values by the method of Bruns et al,^18 using a conversion factor derived from the affinity of [^3 H]N-ethylcarboxamidoadenosine at A2 receptors and the Cheng-Prusoff equation.^19
A short description of data set [5]: Limit of solubility in the A2 binding assay. The format is physicochemical. The note with it: binding assay medium. The source says:
Thus, compound 22 is >285-fold A1 -selective in these binding assays.

Data set [6] concerns A1 -adenosine receptors. The note with it: background; cited from earlier work.
A further data set has as its target adenosine receptor. The note with it: background; read-out: Ki-values as adenosine antagonists; cited from earlier work.
In a further data set the test system is A1 receptor. The note with it: relative to 8-phenyltheophylline; cited from earlier work.
Another data set has as its system A2 receptor. As to conditions: relative to 8-phenyltheophylline; cited from earlier work.

Values after ≈ are worked out from the molar mass of the structure shown. Where two headings read alike, the source gives them in different places.

T1 sequence (P30543 whole entry): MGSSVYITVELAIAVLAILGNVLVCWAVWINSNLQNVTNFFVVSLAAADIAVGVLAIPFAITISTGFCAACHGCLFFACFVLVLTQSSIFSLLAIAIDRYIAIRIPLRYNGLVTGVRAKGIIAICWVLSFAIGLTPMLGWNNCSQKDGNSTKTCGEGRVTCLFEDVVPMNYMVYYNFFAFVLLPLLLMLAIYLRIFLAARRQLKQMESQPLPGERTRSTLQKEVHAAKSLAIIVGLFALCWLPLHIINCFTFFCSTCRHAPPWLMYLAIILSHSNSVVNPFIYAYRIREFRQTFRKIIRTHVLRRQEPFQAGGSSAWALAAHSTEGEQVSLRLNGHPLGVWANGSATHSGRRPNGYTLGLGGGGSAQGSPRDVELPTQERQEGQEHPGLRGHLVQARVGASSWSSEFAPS

Usually Ki stands for the equilibrium dissociation constant of an inhibitor or competing ligand from its target. `CCCn1c(=O)c2[nH]c(-c3ccc(OCC(=O)NCCNC(=O)CCCCCCC(=O)ON4C(=O)CCC4=O)cc3)nc2n(CCC)c1=O` [Compound 44]: the Ki at A2 adenosine receptors [1] was 207 ± 57 nM. Also, the “irreversible inhibitor of A1-adenosine receptors at concentrations” value in the data set with A1 -adenosine receptors [2] is reported as “greater than 50 nM”. Besides, the “Ki (A2)/Ki (A1)” value on A1 adenosine receptors worked out at 56.
Consider `CCCn1c(=O)c2[nH]c(-c3ccc(OCC(=O)NCCNC)cc3)nc2n(CCC)c1=O` [Compound 32], for which the Kb in [3] is 9.3 ± 2.1 nM.
Consider `Cn1c(=S)c2[nH]cnc2n(C)c1=O` [6-thiotheophylline], for which, in the data set on tracheal relaxation, the “cardiac or behavioral stimulation” value is given as “without cardiac or behavioral stimulation” and the tracheal relaxation entry is listed as “induce tracheal relaxation”. Also, the cardiac effect result with cardiac depression is “cause cardiac depression rather than stimulation”.
`Cn1c(=S)c2c(ncn2C)n(C)c1=O` [6-thiocaffeine]: in the data set on tracheal relaxation, the “cardiac or behavioral stimulation” value is “without cardiac or behavioral stimulation” and the tracheal relaxation result is “induce tracheal relaxation”. For the same compound, in the data set with cardiac depression, the cardiac effect entry is “cause cardiac depression rather than stimulation”.
Broadly, the solubility is the dissolved amount per volume that the medium holds. Take `CCCn1c(=O)c2[nH]c(-c3cccs3)nc2n(CCC)c1=S` [Compound 22, 1,3-Dipropyl-8-(2-thienyl)-2-thioxanthine]: the inhibition constant (Ki) on A2 adenosine receptors [4] is greater than 10000 nM; on A1 adenosine receptors (rat cortical membranes, [3H]PIA, single determination in triplicate or average of three ± S.E.M., read-out: Ki A1-receptors) it was 35.1 ± 6 nM. In addition, the “A2 affinity/potency, in words” value at A2 adenosine receptors [4] (relative to the analogs named in the text) was “did not bind measurably to A2 -receptors at its limit of solubility”. This compound yielded a solubility in data set [5] of roughly 10 µM (≈ 3.34 µg/mL). The same compound yielded an A1-selectivity at A1 adenosine receptors (A1 (rat cortex) versus A2 (rat striatum) binding) greater than 285 fold. On A1 adenosine receptors (A1 versus A2 binding, relative to oxygen analogs), the “A1-selectivity, in words” value is given as “a greater margin of A1 -selectivity”. The “Ki (A2)/Ki (A1)” value on A1 adenosine receptors is reported as greater than 285.
For `CCCn1c(=O)c2[nH]c(-c3ccc(OCC(=O)NCCN)cc3)nc2n(CCC)c1=O` [Compound 3, 8-(4-(2-amino-ethylaminocarbonylmethyloxy)phenyl)-1,3-dipropylxanthine], the “potency in binding at A1-adenosine receptors versus theophylline” value with A1 -adenosine receptors [6] is “more than four orders of magnitude more potent than theophylline”.
Consider `Cn1c(=O)c2[nH]cnc2n(C)c1=O` [Compound 1a, theophylline], for which the inhibition constant (Ki) on adenosine receptor is no less than 10000 nM.
As for `Cn1c(=O)c2sc(-c3ccccc3)nc2n(C)c1=O`, the “reduction of activity at an A1 receptor by thio-substitution” value in the data set on A1 receptor is on record as 1000 fold. Further, the “reduction of activity at an A2 receptor by thio-substitution” value with A2 receptor is roughly 100 fold.

The record behind these values is patent publication US5453426A, “Sulfur-containing xanthine derivatives as adenosine antagonists” (priority 1994, dated 1995).
